Test results from publication PMC6266789 (Viruses, 2018).
Values joined by “and” are separate entries in the source; they are usually repeats but may differ in a detail not shown here. Identical values can stand only once. Like-named read-outs stand apart in the source and are kept apart here.

Experiments:
[1] = test system: rec A(H1N1)pdm09; conditions: mouse, in vivo
[2] = test system: rec A(H1N1)pdm09; parameters: species or system C57BL/6 mice; conditions: mouse, in vivo
[3] = test system: influenza; parameters: method as in earlier work; conditions: infected IC young adults; cited from earlier work
[4] = test system: rec A(H1N1)pdm09; parameters: species or system C57BL/6 mice; conditions: mouse, in vivo; remark: listed apart in the source
[5] = test system: NA of pH1N1 influenza virus recovered from lungs of IS mice; format: biochemical, influenza A(H1N1)pdm09; conditions: read-out: NAI Assay (Oseltamivir) Mean IC50
[6] = test system: pH1N1 influenza virus recovered from lungs of IS mice; assay: microbe, parasite or virus in culture; format: cell-based
[7] = test system: rec A(H1N1)pdm09; parameters: species or system C57BL/6 mice; conditions: mouse, in vivo; remark: listed apart in the source

Row | SMILES | development of antibodies (microneutralization) [1] | MDD (mean days of death) [2] | body weight losses over a 21-day period [2] | survival rate [2] | MDD (mean days of death) ([2]; 20 mg/kg) | nasal wash levels of IL-6, TNF-α and IFN-γ [3] | levels of IL-6, TNF-α and IFN-γ after treatment [4] | IC50 [5] | IC50 ([6]; read-out: PRA Assay (Favipiravir) IC50; virus from IS mice treated with oseltamivir 20 mg/kg + favipiravir 20 mg/kg BID, day 15; individual mice; Table 1) | IC50 ([6]; unidentified influenza virus, in Mus musculus, 288 h, virus from not treated IS mice, day 12; individual mice; Table 1 (exp 2); read-out: PRA Assay (Favipiravir) IC50) | IC50 ([6]; unidentified influenza virus, in Mus musculus, 360 h, virus from not treated IS mice, day 15; individual mice; Table 2 (exp 3); read-out: PRA Assay (Favipiravir) IC50) | IC50 ([6]; virus from IS mice treated with favipiravir 20 mg/kg BID, day 15; individual mice; Table 1; read-out: PRA Assay (Favipiravir) IC50) | IC50 ([6]; virus from IS mice treated with favipiravir 50 mg/kg BID, day 15; individual mice; Table 2; read-out: PRA Assay (Favipiravir) IC50) | IC50 ([6]; virus from IS mice treated with oseltamivir 20 mg/kg + favipiravir 20 mg/kg BID, day 15; individual mice; Table 1; read-out: PRA Assay (Favipiravir) IC50) | IC50 ([6]; virus from IS mice treated with oseltamivir 20 mg/kg + favipiravir 50 mg/kg BID, day 15; individual mice; Table 2; read-out: PRA Assay (Favipiravir) IC50) | IC50 ([6]; virus from not treated IS mice, day 12; individual mice; Table 1 (exp 2); read-out: PRA Assay (Favipiravir) IC50) | IC50 ([6]; virus from not treated IS mice, day 15; individual mice; Table 2 (exp 3); read-out: PRA Assay (Favipiravir) IC50) | favipiravir susceptibility phenotype by PRA ([6]; viruses recovered on day 15 p.i., exp 3) | decrease of mortality compared to the non-treated group [2] | LVTs vs non-treated and oseltamivir-treated mice [7]
1 | O=P1(N(CCCl)CCCl)NCCCO1 (stereo not drawn) [CP, cyclophosphamide] | none of them developed antibodies | – | – | – | – | – | – | – | – | – | – | – | – | – | – | – | – | – | – | –
2 | CCOC(=O)C1=C[C@@H](OC(CC)CC)[C@H](NC(C)=O)[C@@H](N)C1 [Oseltamivir, oseltamivir] | – | 14.7 | reduced | 50% | 13 and 16.6 | reduced | not reduced | 0.0006 µM and 0.0008 µM | – | – | – | – | – | – | – | – | – | – | – | –
3 | NC(=O)c1nc(F)cnc1O [Favipiravir, 6-fluoro-3-hydroxy-2-pyrazinecarboxamide] | – | 18 | reduced | 50% | 13 and 16.6 | – | – | – | 14 µM | 13.8 µM | 11.5 µM | 10.6 µM and 13 µM | 12.4 µM | 13 µM | 11.6 µM and 10.4 µM and 9.5 µM | 10.5 µM and 9.5 µM and 9.9 µM | 8.5 µM | did not show a resistant phenotype | 50% | statistically lower
